Results taken from patent US20200024278A1, “COMPOSITION COMPRISING ANTIBIOTIC COMPOUND AND AN HETEROCYCLIC COMPOUND AND THEIR USE IN PREVENTING OR TREATING BACTERIAL INFECTIONS” (MUTABILIS, priority 2016, published 2020).
Read-outs that look alike come from different tables or passages of the source.

Key:
Assay in all cases: MIC, broth microdilution (CLSI), substance alone or ATB combined with compound at 4 or 8 μg/mL
KPN UFR42 = assay type: cell-based, K. pneumoniae; settings: for MIC: Klebsiella pneumoniae
In short: (§1)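 Per CLSI-M7-A7, MICs are determined in cation-adjusted Mueller-Hinton broth with a final inoculum of 5·10^5 CFU/mL. Plates incubate 16-20 h at 35° C in air and are read by eye. Fosfomycin assays carry 25 μg/ml glucose-6-phosphate.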

KPN 6299 = assay type: cell-based, K. pneumoniae; settings: for MIC: Klebsiella pneumoniae
In short: as §1

KPN BAA-1898 = assay type: cell-based, K. pneumoniae; settings: KPN BAA-1898; for MIC: Klebsiella pneumoniae, BAA1898
In short: as §1

SPN 49619 = assay type: cell-based, S. pneumoniae; settings: SPN 49619
In short: as §1

ECL P99 = assay type: cell-based, E. cloacae; settings: ECL P99; for MIC: Enterobacter cloacae
In short: as §1

SAU 29213 = assay type: cell-based, S. aureus; settings: SAU 29213
In short: as §1

[1] = antibiotic alone, read-out: MIC ATB alone

## CO/N=C(\C(=O)N[C@@H]1C(=O)N2C(C(=O)O)=C(COC(N)=O)CS[C@H]12)c1ccco1 [FUR, Cefuroxime, reference compound]
KPN UFR42; KPN UFR42, with Example 13 at 8 μg/ml
  MIC ATB combined with Example 13 @8 μg/ml: >32 µg/mL
KPN UFR42; KPN UFR42, with Example 14 at 8 μg/ml
  MIC ATB combined with Example 14 @8 μg/ml: <0.031 µg/mL
KPN UFR42; KPN UFR42, with Example 15 at 4 μg/ml
  MIC ATB combined with Example 15 @4 μgml: <0.031 µg/mL
KPN UFR42; KPN UFR42, with Example 16 at 4 μg/ml
  MIC ATB combined with Example 16 @4 μg/ml: <0.031 µg/mL
KPN UFR42
  MIC: > 256 µg/mL
KPN UFR42; KPN UFR42, antibiotic alone, read-out: MIC ATB alone
  MIC: > 32 µg/mL
KPN 6299; [1]
  MIC: > 512 µg/mL
KPN 6299; substance alone, read-out: MIC
  MIC: > 512 µg/mL
KPN 6299; with Example 1 @8 μg/ml
  MIC ATB combined with Example 1 @8 μg/ml: 8 µg/mL
KPN 6299; with Example 1 at 8 μg/ml
  MIC ATB combined with Example 1 @8 μg/ml: 8 µg/mL
KPN 6299; with Example 7 at 8 μg/ml
  MIC ATB combined with Example 7 @8 μgml: 2 µg/mL
KPN 6299; with Example 9 @4 μg/ml
  MIC ATB combined with Example 9 @4 μg/ml: <0.031 µg/mL
KPN 6299; with Example 9 at 4 μg/ml
  MIC ATB combined with Example 9 @4 μg/ml: <0.031 µg/mL
KPN 6299; with Example 11 at 8 μg/ml
  MIC ATB combined with Example 11 @8 μg/ml: <0.031 µg/mL
KPN 6299; with Example 12 at 8 μg/ml
  MIC ATB combined with Example 12 @8 μg/ml: <0.031 µg/mL
KPN 6299; with Example 13 at 8 μg/ml
  MIC ATB combined with Example 13 @8 μg/ml: 2 µg/mL
KPN 6299; with Example 14 at 8 μg/ml
  MIC ATB combined with Example 14 @8 μg/ml: <0.031 µg/mL
KPN 6299; with Example 15 at 4 μg/ml
  MIC ATB combined with Example 15 @4 μgml: <0.031 µg/mL
KPN 6299; with Example 16 at 4 μg/ml
  MIC ATB combined with Example 16 @4 μg/ml: <0.031 µg/mL
KPN BAA-1898; with Example 1 @8 μg/ml
  MIC ATB combined with Example 1 @8 μg/ml: 2 µg/mL
KPN BAA-1898; with Example 1 at 8 μg/ml
  MIC ATB combined with Example 1 @8 μg/ml: 2 µg/mL
KPN BAA-1898; with Example 7 at 8 μg/ml
  MIC ATB combined with Example 7 @8 μgml: 8 µg/mL
KPN BAA-1898; with Example 9 @4 μg/ml
  MIC ATB combined with Example 9 @4 μg/ml: <0.031 µg/mL
KPN BAA-1898; with Example 9 at 4 μg/ml
  MIC ATB combined with Example 9 @4 μg/ml: <0.031 µg/mL
KPN BAA-1898; with Example 11 at 8 μg/ml
  MIC ATB combined with Example 11 @8 μg/ml: <0.031 µg/mL
KPN BAA-1898; with Example 12 at 8 μg/ml
  MIC ATB combined with Example 12 @8 μg/ml: <0.031 µg/mL
KPN BAA-1898; with Example 13 at 8 μg/ml
  MIC ATB combined with Example 13 @8 μg/ml: 8 µg/mL
KPN BAA-1898; with Example 14 at 8 μg/ml
  MIC ATB combined with Example 14 @8 μg/ml: <0.031 µg/mL
KPN BAA-1898; with Example 15 at 4 μg/ml
  MIC ATB combined with Example 15 @4 μgml: <0.031 µg/mL
KPN BAA-1898; with Example 16 at 4 μg/ml
  MIC ATB combined with Example 16 @4 μg/ml: <0.031 µg/mL
KPN BAA-1898; [1]
  MIC: > 512 µg/mL
KPN BAA-1898; substance alone, read-out: MIC
  MIC: > 512 µg/mL
SPN 49619; with Example 1 @8 μg/ml
  MIC ATB combined with Example 1 @8 μg/ml: 0.25 µg/mL
SPN 49619; with Example 1 at 8 μg/ml
  MIC ATB combined with Example 1 @8 μg/ml: 0.25 µg/mL
SPN 49619; with Example 7 at 8 μg/ml
  MIC ATB combined with Example 7 @8 μgml: 0.25 µg/mL
SPN 49619; with Example 9 @4 μg/ml
  MIC ATB combined with Example 9 @4 μg/ml: <=0.031 μg/mL
SPN 49619; with Example 9 at 4 μg/ml
  MIC ATB combined with Example 9 @4 μg/ml: <=0.031 μg/mL
SPN 49619; with Example 11 at 8 μg/ml
  MIC ATB combined with Example 11 @8 μg/ml: 0.063 µg/mL
SPN 49619; with Example 12 at 8 μg/ml
  MIC ATB combined with Example 12 @8 μg/ml: <0.031 µg/mL
SPN 49619; with Example 13 at 8 μg/ml
  MIC ATB combined with Example 13 @8 μg/ml: 0.25 µg/mL
SPN 49619; with Example 14 at 8 μg/ml
  MIC ATB combined with Example 14 @8 μg/ml: <0.031 µg/mL
SPN 49619; with Example 15 at 4 μg/ml
  MIC ATB combined with Example 15 @4 μgml: <0.031 µg/mL
SPN 49619; with Example 16 at 4 μg/ml
  MIC ATB combined with Example 16 @4 μg/ml: <0.031 µg/mL
SPN 49619; Streptococcus pneumoniae, antibiotic alone, read-out: MIC ATB alone
  MIC: 0.25 µg/mL
ECL P99; with Example 1 @8 μg/ml
  MIC ATB combined with Example 1 @8 μg/ml: <=0.031 μg/mL
ECL P99; with Example 1 at 8 μg/ml
  MIC ATB combined with Example 1 @8 μg/ml: <=0.031 μg/mL
ECL P99; with Example 7 at 8 μg/ml
  MIC ATB combined with Example 7 @8 μgml: >32 µg/mL
ECL P99; with Example 9 @4 μg/ml
  MIC ATB combined with Example 9 @4 μg/ml: <0.031 µg/mL
ECL P99; with Example 9 at 4 μg/ml
  MIC ATB combined with Example 9 @4 μg/ml: <0.031 µg/mL
ECL P99; with Example 11 at 8 μg/ml
  MIC ATB combined with Example 11 @8 μg/ml: <0.031 µg/mL
ECL P99; with Example 12 at 8 μg/ml
  MIC ATB combined with Example 12 @8 μg/ml: <0.031 µg/mL
ECL P99; with Example 13 at 8 μg/ml
  MIC ATB combined with Example 13 @8 μg/ml: 16 µg/mL
ECL P99; with Example 14 at 8 μg/ml
  MIC ATB combined with Example 14 @8 μg/ml: <0.031 µg/mL
ECL P99; with Example 15 at 4 μg/ml
  MIC ATB combined with Example 15 @4 μgml: <0.031 µg/mL
ECL P99; with Example 16 at 4 μg/ml
  MIC ATB combined with Example 16 @4 μg/ml: <0.031 µg/mL
ECL P99; [1]
  MIC: > 512 µg/mL
ECL P99; substance alone, read-out: MIC
  MIC: > 512 µg/mL
SAU 29213; with Example 1 @8 μg/ml
  MIC ATB combined with Example 1 @8 μg/ml: 1 µg/mL
SAU 29213; with Example 1 at 8 μg/ml
  MIC ATB combined with Example 1 @8 μg/ml: 1 µg/mL
SAU 29213; with Example 7 at 8 μg/ml
  MIC ATB combined with Example 7 @8 μgml: 1 µg/mL
SAU 29213; with Example 9 @4 μg/ml
  MIC ATB combined with Example 9 @4 μg/ml: <0.031 µg/mL
SAU 29213; with Example 9 at 4 μg/ml
  MIC ATB combined with Example 9 @4 μg/ml: <0.031 µg/mL
SAU 29213; with Example 11 at 8 μg/ml
  MIC ATB combined with Example 11 @8 μg/ml: <0.031 µg/mL
SAU 29213; with Example 12 at 8 μg/ml
  MIC ATB combined with Example 12 @8 μg/ml: <0.031 µg/mL
SAU 29213; with Example 13 at 8 μg/ml
  MIC ATB combined with Example 13 @8 μg/ml: 1 µg/mL
SAU 29213; with Example 14 at 8 μg/ml
  MIC ATB combined with Example 14 @8 μg/ml: <0.031 µg/mL
SAU 29213; with Example 15 at 4 μg/ml
  MIC ATB combined with Example 15 @4 μgml: <0.031 µg/mL
SAU 29213; with Example 16 at 4 μg/ml
  MIC ATB combined with Example 16 @4 μg/ml: <0.031 µg/mL
SAU 29213; Staphylococcus aureus, antibiotic alone, read-out: MIC ATB alone
  MIC: 2 µg/mL
